This is an account of results in US10584283B2, “Preservative for technical products” (Schülke & Mayr GmbH, priority 2015, dated 2020).

The data set can be described thus: Storage stability in polyethylene bottles, Experiment 6 (other alkalizing agents). Type of data set: physicochemical. The procedure: It was also investigated whether the stabilization achieved according to the invention with the particularly preferred agent MIPA is also achieved with other alkalizing agents.
Samples of the solutions were stored in bottles made of polyethylene at −5° C., 25° C. and 40° C. in order to investigate the stability.

Turning to `CCCCCCCCCCCCN(CCCN)CCCN` [N,N-bis(3-aminopropyl)-dodecylamine], the “Storage stability / compatibility (conclusion in words)” value is reported as “incompatible with TTT”.
